Values quoted from earlier work as cited in patent publication US20240299501A1, “COMPOSITION AND METHODS OF TREATMENT USING TRANSDERMAL HORMONE SUPPLEMENTATION” (Xygenyx Inc., priority 2023, published 2024).

Columns and labels:
[1] = single penetration enhancer
[2] = tested on: wide dynamic range neurons in the ventroposterolateral nucleus of the thalamus; conditions: stated as 'is believed'
[3] = in the human body

Compound | increase of drug uptake via the transdermal route (factor) [1] | other results
CC(C)[C@@H]1CC[C@@H](C)C[C@H]1O [Menthol] | ≥ 10 | 
CCCCCc1cc(O)c2c(c1)OC(C)(C)C1CCC(C)=CC21 (stereo not shown) [THC, Δ-9-tetrahydrocannabinol] |  | potency relative to morphine in mediating pain [2]: ten times more powerful than morphine
CC12CCC(CC1)C(C)(C)O2 [eucalyptol, 1,8-epoxy-p-menthane] | more than 10 | 
HGH: hormone comprising a peptide chain that is synthesized in the pituitary gland |  | biological half-life [3]: 10-20 minutes
